# ChEMBL document CHEMBL1145756, “Structure-activity relationships of indole cytosolic phospholipase A(2)alpha inhibitors: substrate mimetics” (Bioorg Med Chem Lett, 2003)
# Assays:
# [1] = target: T1, Cytosolic phospholipase A2 (Homo sapiens, UniProt P47712); assay: In vitro inhibition of cystolic phospholipase A2 alpha.
# T1 sequence (P47712 whole entry): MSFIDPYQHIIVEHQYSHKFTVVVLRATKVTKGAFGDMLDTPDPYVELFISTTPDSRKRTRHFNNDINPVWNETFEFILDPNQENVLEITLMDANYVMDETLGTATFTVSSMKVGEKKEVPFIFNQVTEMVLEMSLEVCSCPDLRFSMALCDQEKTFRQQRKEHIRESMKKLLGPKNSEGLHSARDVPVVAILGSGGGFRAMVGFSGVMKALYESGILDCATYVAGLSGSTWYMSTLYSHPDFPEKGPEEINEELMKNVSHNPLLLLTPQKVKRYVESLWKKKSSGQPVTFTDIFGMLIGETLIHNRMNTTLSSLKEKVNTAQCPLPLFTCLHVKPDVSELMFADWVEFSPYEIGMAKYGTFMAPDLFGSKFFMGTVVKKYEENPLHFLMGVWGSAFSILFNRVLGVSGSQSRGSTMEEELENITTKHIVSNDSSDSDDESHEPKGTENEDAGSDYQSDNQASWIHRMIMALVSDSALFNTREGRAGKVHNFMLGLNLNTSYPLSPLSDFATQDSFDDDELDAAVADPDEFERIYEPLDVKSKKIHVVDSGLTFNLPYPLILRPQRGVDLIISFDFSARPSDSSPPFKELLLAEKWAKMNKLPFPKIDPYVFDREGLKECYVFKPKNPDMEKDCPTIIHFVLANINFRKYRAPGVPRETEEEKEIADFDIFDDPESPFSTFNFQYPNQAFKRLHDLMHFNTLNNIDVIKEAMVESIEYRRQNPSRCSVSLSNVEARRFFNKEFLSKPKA
# [2] = Oral bioavailability in rat (dose 10 mg/kg); type: ADME, organism-based; settings: in vivo
# Homo sapiens = species on record: Homo sapiens; assay: Inhibitory concentration against arachidonic acid release determined in human neutrophils PMN assay; type: functional
# [3] = target: T1, Cytosolic phospholipase A2; assay: Inhibitory concentration against cystolic phospholipase A2 alpha receptor (c-PLA2 alpha) using coumarin assay
Structure (SMILES),IC50 [1],bioavailability [2],IC50 (Homo sapiens),IC50 [3]
COc1cc(C(=O)O)ccc1Cc1cn(C(c2ccccc2)c2ccccc2)c2cc(Cl)ccc12,0.8 µM,63%,–,–
COc1cc(C(=O)NS(=O)(=O)c2ccccc2C)ccc1Cc1cn(CC2CC2)c2ccc(NC(=O)OC3CCCC3)cc12,20 µM,–,–,–
COc1cc(C(=O)O)ccc1Cc1cn(C(c2ccccc2)c2ccccc2)c2ccccc12,3.6 µM,–,–,–
COc1cc(C(=O)O)ccc1Cc1cn(C(c2ccccc2)c2ccccc2)c2ccc(NC(=O)OC3CCCC3)cc12,5 µM,–,–,–
COc1cc(C(=O)NS(=O)(=O)c2ccccc2C)ccc1Cc1cn(Cc2ccncc2)c2ccc(NC(=O)OC3CCCC3)cc12,38 µM,–,–,–
COc1cc(C(=O)NS(=O)(=O)c2ccccc2C)ccc1Cc1cn(C)c2ccc(NC(=O)OC3CCCC3)cc12 [ZAFIRLUKAST],85 µM,–,–,–
CCCCNC(=O)Nc1ccc2c(c1)c(Cc1ccc(C(=O)O)cc1OC)cn2C(c1ccccc1)c1ccccc1,15 µM,–,–,–
COc1cc(C(=O)O)ccc1Cc1cn(C(c2ccccc2)c2ccccc2)c2c(Cl)cccc12,2.1 µM,–,–,–
COc1cc(C(=O)O)ccc1Cc1cn(C(c2ccccc2)c2ccccc2)c2ccc(NS(C)(=O)=O)cc12,20 µM,–,–,–
COc1cc(C(=O)O)ccc1Cc1cn(C(c2ccccc2)c2ccccc2)c2cccc(Cl)c12,4.5 µM,–,–,–
COc1cc(C(=O)NS(=O)(=O)c2ccccc2C)ccc1Cc1cn(C2CCCC2)c2ccc(NC(=O)OC3CCCC3)cc12,17 µM,–,–,–
COc1cc(C(=O)NS(=O)(=O)c2ccccc2C)ccc1Cc1cn(C(c2ccccc2)c2ccccc2)c2ccc(NC(=O)OC3CCCC3)cc12,6 µM,–,–,–

# More lines, now with the values ahead:
IC50 [1],bioavailability [2],IC50 (Homo sapiens),IC50 [3],Structure (SMILES)
–,16%,1.2 µM,0.6 µM,COc1cc(C(=O)O)ccc1Cc1cn(C(c2ccccc2)c2ccccc2)c2ccc(Br)cc12
–,38%,–,0.9 µM,COc1cc(C(=O)O)ccc1Cc1cn(C(c2ccccc2)c2ccccc2)c2ccc(C)cc12
1 µM,–,–,–,COc1cc(C(=O)O)ccc1Cc1cn(C(c2ccccc2)c2ccccc2)c2ccc(F)cc12
–,19%,1.3 µM,0.8 µM,COc1cc(C(=O)O)ccc1Cc1cn(C(c2ccccc2)c2ccccc2)c2ccc(C#N)cc12
–,–,1.8 µM,0.4 µM,COc1cc(C(=O)O)ccc1Cc1cn(C(c2ccccc2)c2ccccc2)c2ccc([N+](=O)[O-])cc12
–,22%,1.8 µM,0.4 µM,COc1cc(C(=O)O)ccc1Cc1cn(C(c2ccccc2)c2ccccc2)c2ccc(Cl)cc12
41 µM,–,–,–,COc1cc(C(=O)O)ccc1Cc1cn(C(c2ccccc2)c2ccccc2)c2ccc(N)cc12
1.9 µM,–,–,–,COc1ccc2c(c1)c(Cc1ccc(C(=O)O)cc1OC)cn2C(c1ccccc1)c1ccccc1
24 µM,–,–,–,COc1cc(C(=O)O)ccc1Cc1cn(C(c2ccccc2)c2ccccc2)c2ccc(N(C)C)cc12
2 µM,–,–,–,COc1cc(C(=O)O)ccc1Cc1cn(C(c2ccccc2)c2ccccc2)c2ccc(S(C)(=O)=O)cc12
